In patent US10071103B2, “Treatments for resistant acne” (VYOME BIOSCIENCES PVT. LTD., priority 2014, dated 2018):
Values after ≈ are worked out from the molar mass of the structure shown. Where two headings read alike, the source gives them in different places.

How the values were obtained:
P. acnes MTCC 1951 = type: cell-based, Propionibacterium acnes; conditions: for MPC/MIC: ratio against P. acnes
Experimental: 3 to 4 Petri plates containing 48 h P. acnes culture was suspended in sterile Phosphate buffer saline, PBS (pH 7.2) and turbidity was adjusted to optical density of 1 at 600 nm (10^9 cells/ml). 50 ml of this culture suspension was centrifuged at 4000 rpm for 40 min. The supernatant was discarded and pellet resuspended in 250 μl of sterile PBS. 50 μl of these cell suspensions (10^10 cells) was spread over the plates containing various concentrations of antibiotics (around MIC range). Plates were incubated at 37° C. for 48 h and the lowest concentration of the drug that allowed no growth was taken as its MPC.

THP-1 cells = assay: Viability of THP-1 cells under treatment; type: cell-based; conditions: 25 μg/ml of compound 91
IL-1α = assay: P. acnes-induced IL-1α release in THP-1 cells (ELISA); type: cell-based; conditions: 25 μg/ml, 100% = P. acnes induced cells
Experimental: Method: Preparation of Stimulant for Inflammation: P. acnes culture suspension was prepared in PBS and the cell number in the suspension was adjusted to approximately 5×10^8 CFU/ml by measuring the cell density using a Densimat. The bacterial suspension was then heat killed at 80° C. for 30 min and stored at −80° C. until further use.
Cells were seeded in a 96-well format (2×10^5 THP-1 cells per well) in media containing 10% FBS. The cells were stimulated to induce inflammatory cytokines using 3 McFarland equivalent heat-killed P. acnes. Cells in control wells were treated with PBS. One hour after induction with P. acnes, test agents were added to the induced cells at appropriate concentrations to be tested (compound 91 at 25 μg/ml). The plates were incubated at 37° C. for 24 hours. After 24 h, the plates were centrifuged to pellet the cells and the supernatants were collected. The cell culture supernatants thus obtained were analyzed for levels of cytokines (IL-1α, IL-1β, IL-6 and IL-8) by ELISA using R&D Systems kits for individual cytokines following the manufacturer's instructions.

IL-8 = assay: P. acnes-induced IL-8 release in THP-1 cells (ELISA); type: cell-based; conditions: 25 μg/ml
P. acnes CCARM 9010 = assay: MIC by micro broth dilution (Alamar blue), clindamycin-resistant/nonresponsive P. acnes; type: cell-based, Propionibacterium acnes; conditions: for Activity / bacterial killing, dose response curve (in words): clindamycin-nonresponsive CCARM 9010
Experimental: (§1) The plates were incubated at 37° C. for 48 h under anaerobic condition for P. acnes and 37° C. for 24 h for S. aureus The plates were read under Bio-Rad plate reader at 595 nm for optical density to generate the dose-response curves. The MIC of the test compound was recorded by addition of Alamar blue dye.
P. acnes (MTCC 3297, MTCC 1951& CCARM 9010) are cultured in Brain Heart Infusion (BHI) Broth at 37° C. for 48-72 h under anaerobic condition. The test compounds/formulations are initially diluted with suitable solvent and further diluted with BHI broth to get the required concentrations. Samples (100 μl) of different concentrations (prepared by serial dilution) are added to 96-well plate. To the wells, 100 μl of P. acnes BHI broth culture is added [culture turbidity adjusted against 0.5 McFarland standard (approx 1.5×10^8), and further diluted 100-fold with sterile BHI broth]. In addition Growth Control and Sterility Control are created using 100 μl each of P. acnes BHI broth culture and plain BHI broth, respectively.
Plates are incubated at 37° C. for 48-72 hrs under anaerobic condition. The plate is read under Bio-Rad plate reader @ 595 nm for optical density to generate the dose-response curves. The MIC of the test compound is recorded by addition of Alamar blue dye.

S. aureus MTCC 6908 = assay: MIC by micro broth dilution, laboratory S. aureus strain; type: cell-based, Staphylococcus aureus; conditions: Staphylococcus aureus, MTCC6908; Table 6; read-out: MIC Susceptible S. aureus (6908) strain
Experimental: as §1
S. aureus MTCC 6908 were grown in Tryptone Soya Agar (TSA) at 37° C. for 24 hours. […] Plates were incubated at 37° C. for 24 hours. […] (2) Zone of Inhibition (ZOI): S. aureus MTCC 6908 were grown in Tryptone Soya Agar (TSA) at 37° C. for 24 hours. BHA plates are spreaded with 100 μl of 0.5 McFarland standard equal bacterial suspension. Test samples (drugs/formulations) were dissolved in water/solvent based on the solubility. Sterile disc (6 mm) were loaded with 10 μl of test samples (of various concentration of drug), and were placed above the spreaded plates. Plates were incubated at 37 C for 24 h, followed by ZOI measurement. (3) Time Kill Assay: 0.5 McFarland standard equal S. aureus culture was prepared in sterile water. Besifloxacin gels were diluted in Tryptone Soya broth (TSB) to get final concentration of 25 μg/ml. Then 900 μl of S. aureus 0.5 McFarland standard equal culture and 100 μl of diluted Besifloxacin gel was mixed to obtain final Besifloxacin concentration, 2.5 μl g/ml. Total reaction mixture (1 ml) was incubated at 37° C. in a tube rotator. After 2 and 6 h exposure, bacterial suspension was placed on Tryptone soya agar plate and incubated at 37° C. for 24 h.
Inoculated plates were incubated at 37° C. for 24 hours.

IL-6 = assay: P. acnes-induced IL-6 release in THP-1 cells (ELISA); type: cell-based; conditions: 25 μg/ml, THP-1 cells, 100% = P. acnes induced cells

Cc1ncc([N+](=O)[O-])n1CC(O)CN1CCN(c2cc3c(cc2F)c(=O)c(C(=O)O)c2n3C(C)S2)CC1 (centres unmarked) [Compound 91, 6-Fluoro-7-{4-[2-hydroxy-3-(2-methyl-5-nitro-imidazol-1-yl)-propyl]-piperazin-1-yl}-1-methyl-4-oxo-4H-2-thia-8b-aza-cyclobuta[a]naphthalene-3-carboxylic acid]
MPC (P. acnes MTCC 1951; P. acnes, 10^10 cells inoculum): 0.3 to 0.6 µg/mL | MPC/MIC (P. acnes MTCC 1951): 1.5-3 | MPC/MIC (P. acnes MTCC 1951; listed as compound 91): 1.5 | Viability of THP-1 cells (THP-1 cells): 90% | Percentage reduction in P. acnes induced IL-1α release (IL-1α): 27.51% | Percentage reduction in P. acnes induced IL-1α release (IL-1α; listed as compound 91): 20-25% | Effect on IL-8 levels (in words) (IL-8; P. acnes-induced THP-1 cells): did not have an effect | Percentage reduction in P. acnes induced IL-8 release (IL-8; THP-1 cells, 100% = P. acnes induced cells): 14.65% | MIC (P. acnes CCARM 9010; Cutibacterium acnes, CCARM9010, read-out: MIC Resistant P. acnes (9010) strain): 0.1 µg/mL (≈ 0.188 µM) | Activity / bacterial killing, dose response curve (in words) (P. acnes CCARM 9010): highly efficacious bacterial killing profile | Activity / bacterial killing, dose response curve (in words) (P. acnes CCARM 9010; listed as compound 91): lower MIC value and faster bacterial killing profile | MIC (S. aureus MTCC 6908): 1.5 µg/mL (≈ 2.82 µM) | Percentage reduction in P. acnes induced IL-6 release (IL-6): 56.76% | Percentage reduction in P. acnes induced IL-6 release (IL-6; listed as compound 91): ~60%
